How the values were obtained:
Test in all cases: relative viability (nuclei count vs DMSO), 5 days (fraction); higher = more cells survive
[1] = compound: CC(=O)Nc1cccc(-n2c(=O)n(C3CC3)c(=O)c3c(Nc4ccc(I)cc4F)n(C)c(=O)c(C)c32)c1 [Trametinib] + Nc1ncn([C@H]2C[C@H](O)[C@@H](CO)O2)c(=O)n1 [Decitabine] (partner 2 µM)
In short: (§1)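 Relative viability equals treated-well nuclei counts divided by vehicle-well nuclei counts. Counts came from 4× images of lung cancer cell lines grown in 1536-well plates for 5 days after pin-tool dosing on the day after seeding. Dosing used one drug alone or a fixed anchor-drug dose plus five library-drug doses (not always all listed) in √10 steps, and values are medians of duplicate plates.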

[2] = compound: CN1C=C(C2=CC=CC=C21)/C=C\3/C4=C(C=CC=N4)NC3=O + CS(=O)(=O)CCNCc1ccc(-c2ccc3ncnc(Nc4ccc(OCc5cccc(F)c5)c(Cl)c4)c3c2)o1 [Lapatinib] (partner 2 µM)
In short: as §1

[3] = compound: CC(=O)Nc1cccc(-n2c(=O)n(C3CC3)c(=O)c3c(Nc4ccc(I)cc4F)n(C)c(=O)c(C)c32)c1 [Trametinib] + COc1cc2c(Oc3ccc(NC(=O)C4(C(=O)Nc5ccc(F)cc5)CC4)cc3F)ccnc2cc1OCCCN1CCOCC1 [Foretinib] (partner 0.25 µM)
In short: as §1

| Cell Line | relative viability ([1]; first compound 0.0025 µM) | relative viability ([1]; first compound 0.007906 µM) | relative viability ([1]; first compound 0.025 µM) | relative viability ([1]; first compound 0.07906 µM) | relative viability ([1]; first compound 0.25 µM) | relative viability ([2]; first compound 0.02 µM) | relative viability ([2]; first compound 0.06325 µM) | relative viability ([2]; first compound 0.2 µM) | relative viability ([2]; first compound 0.6325 µM) | relative viability ([2]; first compound 2 µM) | relative viability ([3]; first compound 0.0025 µM) | relative viability ([3]; first compound 0.007906 µM) | relative viability ([3]; first compound 0.025 µM) | relative viability ([3]; first compound 0.07906 µM) | relative viability ([3]; first compound 0.25 µM) |
| --- | --- | --- | --- | --- | --- | --- | --- | --- | --- | --- | --- | --- | --- | --- | --- |
| 201T | 0.854 | 0.743 | 0.765 | 0.782 | 0.749 | 0.993 | 1.05 | 1.04 | 1.06 | 1.04 | 1.05 | 1 | 1.02 | 0.815 | 0.715 |
| A549 | 0.224 | 0.245 | 0.209 | 0.168 | 0.0957 | 1.08 | 0.873 | 0.91 | 0.932 | 1.05 | 0.817 | 0.594 | 0.534 | 0.178 | 0.0763 |
| A-427 | 0.522 | 0.585 | 0.541 | 0.525 | 0.418 | 0.972 | 1.04 | – | 0.998 | 1.07 | 1 | 0.747 | 0.619 | 0.517 | 0.448 |
| ABC-1 | 0.884 | 1.16 | 1.02 | 1.24 | 0.837 | 1.39 | 1.16 | 1.12 | 1.25 | 1.28 | 1.04 | 0.834 | 0.715 | 0.891 | 0.685 |
| BEN | 0.768 | 0.663 | 0.5 | 0.506 | 0.654 | 0.685 | 0.718 | 0.559 | 0.585 | 0.785 | 0.757 | 0.727 | 0.302 | 0.408 | 0.499 |
| CAL-12T | – | – | – | – | – | 0.652 | 0.625 | 0.574 | 0.717 | 0.839 | 0.969 | 0.893 | 0.716 | 0.499 | 0.489 |
| COR-L23 | 0.428 | 0.435 | 0.329 | 0.372 | 0.293 | 0.973 | 0.92 | 1.16 | 0.923 | 1.12 | 1.05 | 1.04 | 0.953 | 0.777 | 0.45 |
| COR-L 105 | 0.64 | 0.609 | 0.486 | 0.375 | 0.36 | 0.33 | 0.334 | 0.362 | 0.344 | 0.397 | 0.815 | 1.19 | 0.489 | 0.552 | 0.374 |
| Calu-6 | – | – | – | – | – | 1.15 | 1 | 1 | 0.968 | 1.01 | 0.835 | 0.503 | 0.418 | 0.12 | 0.131 |
| ChaGo-K-1 | 0.52 | 0.494 | 0.576 | 0.467 | 0.497 | – | – | – | – | – | 0.805 | 0.908 | 0.839 | 0.839 | 0.687 |
| EBC-1 | – | – | – | – | – | 0.197 | 0.201 | 0.177 | 0.232 | 0.2 | 0.101 | 0.0972 | 0.0957 | 0.0946 | 0.0905 |
| EKVX | 0.36 | 0.351 | 0.326 | 0.372 | 0.222 | 0.221 | 0.148 | 0.156 | 0.188 | 0.167 | 0.809 | 0.724 | 0.332 | 0.379 | 0.838 |
| EMC-BAC-2 | 0.974 | 0.95 | 0.827 | – | 0.5 | 0.883 | 0.91 | 0.934 | 0.836 | 0.921 | 0.917 | 0.885 | 0.782 | 0.907 | 0.68 |
| EPLC-272H | 0.357 | 0.324 | 0.326 | 0.336 | 0.293 | 0.979 | 0.819 | – | 0.995 | 0.883 | 0.476 | 0.384 | 0.26 | 0.237 | 0.14 |
| H3255 | 0.552 | 0.572 | 0.487 | 0.518 | 0.378 | 0.267 | 0.269 | 0.205 | 0.232 | 0.209 | 0.794 | 0.857 | 0.501 | 0.728 | 0.509 |
| HARA | 0.606 | 0.469 | 0.474 | 0.421 | 0.422 | 0.703 | 0.653 | 0.665 | 0.857 | 0.768 | 0.834 | 0.555 | 0.58 | 0.515 | 0.232 |
| HCC-15 | 0.519 | 0.464 | 0.501 | 0.248 | 0.234 | 0.827 | 0.71 | 0.903 | 0.886 | 0.932 | 0.75 | 0.559 | 0.343 | 0.244 | 0.201 |
| HCC-44 | 0.894 | 0.924 | 1.05 | 0.943 | 0.848 | 0.912 | 0.963 | 0.928 | 0.834 | 0.9 | – | – | – | – | – |
| HCC-78 | 0.81 | 0.662 | 0.621 | 0.683 | 0.66 | 0.965 | 0.288 | 0.46 | 0.53 | 0.689 | 0.515 | 0.392 | 0.513 | 0.443 | 0.403 |
| HCC-366 | 0.29 | 0.307 | 0.276 | 0.273 | 0.206 | 0.816 | 0.976 | 0.952 | 1.15 | 1.08 | 0.875 | 0.765 | 0.768 | 0.49 | 0.228 |
| HCC-827 | 0.365 | 0.289 | 0.315 | 0.274 | 0.236 | 0.21 | 0.185 | – | 0.159 | 0.179 | 1.01 | 0.95 | 0.787 | 0.556 | 0.425 |
| HOP-62 | 0.199 | 0.229 | 0.252 | 0.235 | 0.227 | 1.28 | 1.21 | 0.688 | 0.882 | 1.06 | 1.04 | 0.948 | 0.623 | 0.341 | 0.252 |
| IA-LM | – | – | – | – | – | 0.947 | 0.617 | 0.546 | 0.65 | 0.448 | 1.09 | 0.687 | 0.351 | 0.169 | 0.0888 |
| LC-2-ad | 0.803 | 0.683 | 0.782 | 0.689 | 0.7 | 0.834 | 0.935 | 0.89 | 1.05 | 1 | 0.792 | 0.726 | 0.57 | 0.477 | 0.409 |
